Like-named read-outs stand apart in the source and are kept apart here.
Columns and labels:
ryegrass, Italian = assay: Test C pre-/postemergence herbicide test; type: in vivo, Lolium multiflorum
How it was run: (§1)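 Visual rating, 0 (no effect) to 100 (complete control), versus untreated controls after 13 to 15 days in the greenhouse. Pre: seeds in loam/sand, sprayed at planting. Post: 1- to 4-leaf plants (2 to 18 cm) in peat-based mix. Compounds in non-phytotoxic solvent plus surfactant.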

nutsedge, yellow = assay: Test C pre-/postemergence herbicide test; type: in vivo, Cyperus esculentus
How it was run: as §1

ragweed = assay: Test C pre-/postemergence herbicide test; type: in vivo, Ambrosia elatior
How it was run: as §1

giant foxtail = assay: Test A pre-/postemergence herbicide test; type: in vivo, Setaria faberii; details: for pest or weed control at 125 g/ha: 125 g ai/ha
How it was run: (§2)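 Seeds sown in loam soil/sand blend received a preemergence directed soil spray of test chemical in non-phytotoxic solvent with surfactant; postemergence plants (2–10 cm, one- to two-leaf stage) were sprayed with the same formulation. After about 10 days in greenhouse, injury was rated visually versus untreated controls, 0 (no effect) to 100 (complete control).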

pigweed = assay: Test A pre-/postemergence herbicide test; type: in vivo, Amaranthus retroflexus; details: for pest or weed control at 125 g/ha: 125 g ai/ha
How it was run: as §2

blackgrass = assay: Test C pre-/postemergence herbicide test; type: in vivo, Alopecurus myosuroides
How it was run: as §1

wheat = assay: Test A pre-/postemergence herbicide test; type: in vivo, Triticum aestivum; details: Postemergence
How it was run: as §2

johnsongrass = assay: Test C pre-/postemergence herbicide test; type: in vivo, Sorghum halepense
How it was run: as §1

foxtail, giant = assay: Test C pre-/postemergence herbicide test; type: in vivo, Setaria faberii
How it was run: as §1

crabgrass, large = assay: Test C pre-/postemergence herbicide test; type: in vivo, Digitaria sanguinalis
How it was run: as §1

[1] = Postemergence, 31 g ai/ha, scale 0 to 100 (0 no effect, 100 complete control)
[2] = Postemergence, 62 g ai/ha, scale 0 (no effect) to 100 (complete control)
[3] = Postemergence, 125 g ai/ha, scale 0 to 100 (0 no effect, 100 complete control)
[4] = Postemergence, 250 g ai/ha, scale 0 to 100 (0 no effect, 100 complete control)
[5] = Preemergence, 31 g ai/ha, scale 0 to 100, 0 is no effect and 100 is complete control
[6] = Preemergence, 62 g ai/ha, scale 0 to 100 (0 no effect, 100 complete control)
[7] = Preemergence, 125 g ai/ha, scale 0 to 100 (0 no effect, 100 complete control)

O=C1NC[C@H](c2cccc(C(F)(F)F)c2)[C@H]1C(=O)Nc1ccccc1F [Compound 204, (3R,4S)—N-(2-fluorophenyl)-2-oxo-4-[3-(trifluoromethyl)phenyl]-3-pyrrolidinecarboxamide]
10: Johnsongrass plant response rating (johnsongrass; [5]) | Plant response rating, Foxtail, Giant (foxtail, giant; [2])
0: Plant response rating, Ryegrass, Italian (ryegrass, Italian; [1]) | Plant response rating, Ryegrass, Italian (ryegrass, Italian; [2]) | Plant response rating, Ryegrass, Italian (ryegrass, Italian; [3]) | Ryegrass, Italian plant response rating (ryegrass, Italian; [5]) | Ryegrass, Italian plant response rating (ryegrass, Italian; [6]) | Plant response rating, Nutsedge, Yellow (nutsedge, yellow; [1]) | Plant response rating, Nutsedge, Yellow (nutsedge, yellow; [2]) | Plant response rating, Nutsedge, Yellow (nutsedge, yellow; [3]) | Plant response rating, Nutsedge, Yellow (nutsedge, yellow; [4]) | Nutsedge, Yellow plant response rating (nutsedge, yellow; [5]) | Nutsedge, Yellow plant response rating (nutsedge, yellow; [6]) | Plant response rating, Nutsedge, Yellow (nutsedge, yellow; [7]) | Plant response rating (scale of 0 to 100), Nutsedge, Yellow (nutsedge, yellow; Preemergence, 250 g ai/ha) | Plant response rating, Ragweed (ragweed; [1]) | Plant response rating, Ragweed (ragweed; [2]) | Plant response rating, Ragweed (ragweed; [3]) | Plant response rating, Ragweed (ragweed; [4]) | Plant response rating, Blackgrass (blackgrass; [1]) | Plant response rating, Blackgrass (blackgrass; [2]) | Plant response rating, Blackgrass (blackgrass; [3]) | Plant response rating, Johnsongrass (johnsongrass; [1]) | Plant response rating, Johnsongrass (johnsongrass; [2]) | Plant response rating, Johnsongrass (johnsongrass; [3]) | Plant response rating, Johnsongrass (johnsongrass; [4]) | Plant response rating, Foxtail, Giant (foxtail, giant; [1]) | Plant response rating, Crabgrass, Large (crabgrass, large; [1])
40: Johnsongrass plant response rating (johnsongrass; [6])
75: Plant response rating, Johnsongrass (johnsongrass; [7])
90: Foxtail, Giant plant response rating (0 to 100 scale, 0 is no effect, 100 is complete control) (giant foxtail; Postemergence, 500 g ai/ha) | Blackgrass plant response rating (blackgrass; [5]) | Plant response rating, Blackgrass (blackgrass; Preemergence, 62 g ai/ha, scale 0 to 100) | Plant response rating, Blackgrass (blackgrass; [7]) | Plant response rating (scale of 0 to 100), Blackgrass (blackgrass; Preemergence, 250 g ai/ha) | Plant response rating, Foxtail, Giant (foxtail, giant; [3]) | Plant response rating, Foxtail, Giant (foxtail, giant; [4]) | Foxtail, Giant plant response rating (foxtail, giant; [5]) | Foxtail, Giant plant response rating (foxtail, giant; [6]) | Crabgrass, Large plant response rating (crabgrass, large; [5]) | Crabgrass, Large plant response rating (crabgrass, large; [6])
70: Plant response rating, Crabgrass, Large (crabgrass, large; [3])
0%: pest or weed control at 125 g/ha (pigweed; Amaranthus retroflexus, post-emergence, 240 h, Postemergence, 0 to 100 scale, 0 is no effect, 100 is complete control, read-out: Plant response rating, Pigweed) | pest or weed control at 125 g/ha (pigweed; Amaranthus retroflexus, pre-emergence, 240 h, visual rating, 0 to 100 scale, 0 no effect, 100 complete control, approximately 10 days, read-out: Plant response rating, Pigweed)
60%: plant injury at 125 g/ha (wheat; Triticum aestivum, post-emergence, 240 h, 125 g ai/ha, 0 to 100 scale, 0 is no effect, 100 is complete control, read-out: Plant response rating, Wheat)
80: Wheat plant response rating (0 to 100 scale, 0 is no effect, 100 is complete control) (wheat; 500 g ai/ha) | Plant response rating, Crabgrass, Large (crabgrass, large; [4])
85: Plant response rating (scale of 0 to 100), Johnsongrass (johnsongrass; Preemergence, 250 g ai/ha)
30: Plant response rating (scale of 0 to 100), Ryegrass, Italian (ryegrass, Italian; Preemergence, 250 g ai/ha) | Ragweed plant response rating (ragweed; [5]) | Ragweed plant response rating (ragweed; [6])
90%: pest or weed control at 125 g/ha (giant foxtail; Setaria faberi, post-emergence, 240 h, Postemergence, 0 to 100 scale, 0 is no effect, 100 is complete control, read-out: Plant response rating, Foxtail, Giant) | pest or weed control at 125 g/ha (giant foxtail; Setaria faberi, pre-emergence, 240 h, visual rating, 0 to 100 scale, 0 no effect, 100 complete control, approximately 10 days, read-out: Plant response rating, Foxtail, Giant) | pest or weed control at 500 g/ha (giant foxtail; Setaria faberi, pre-emergence, 240 h, preemergence, 500 g ai/ha, 0 to 100 scale, 0 is no effect and 100 is complete control, read-out: Plant response rating, Foxtail, Giant)
15: Plant response rating, Ryegrass, Italian (ryegrass, Italian; [4])
50%: pest or weed control at 500 g/ha (pigweed; Amaranthus retroflexus, pre-emergence, 240 h, preemergence, 500 g ai/ha, 0 to 100 scale, 0 is no effect and 100 is complete control, read-out: Plant response rating, Pigweed)
50: Plant response rating, Ryegrass, Italian (ryegrass, Italian; [7]) | Plant response rating, Blackgrass (blackgrass; [4]) | Plant response rating, Crabgrass, Large (crabgrass, large; [2])
100: Plant response rating, Ragweed (ragweed; [7]) | Plant response rating, Crabgrass, Large (crabgrass, large; [7])
65: Plant response rating (scale of 0 to 100), Ragweed (ragweed; Preemergence, 250 g ai/ha)
95: Plant response rating, Foxtail, Giant (foxtail, giant; [7]) | Plant response rating (scale of 0 to 100), Foxtail, Giant (foxtail, giant; Preemergence, 250 g ai/ha) | Plant response rating (scale of 0 to 100), Crabgrass, Large (crabgrass, large; Preemergence, 250 g ai/ha)
20: Pigweed plant response rating (0 to 100 scale, 0 is no effect, 100 is complete control) (pigweed; Postemergence, 500 g ai/ha)

Source: patent US10294202B2, “Pyrrolidinones as herbicides” (FMC Corporation, priority 2013, dated 2019)
